Source: patent publication US8431583B2, “Use of purine derivatives for the manufacture of a medicament” (Centre National de la Recherche Scientifique, priority 2007, dated 2013)
Each block holds one molecule with its values, some of them ahead of it.

Assays:
[1] = test system: B2 lymphocytes originating from patients; test: Induction of cell death of B chronic lymphoid leukemia cells (B2 lymphocytes) from patients; type: cell-based, human; details: B2 lymphocytes from CLL patients, MTS reduction / LDH release
Method: The B2 lymphocytes are lymphocytes involved in […] chronic lymphoid leukemia.
Cell viability is determined by the reduction of 3-(4,5-dimethylthiazol-2-yl)-5-(3-carboxymethoxyphenyl)-2-(4-sulfophenyl)-2H-tetrazolium (MTS).
Cell death is determined by the measurement of the level of the activity of the lactate dehydrogenase (LDH) released during lysis of the cells. The two processes are described in detail in “Ribas J. and Boix J. Cell differentiation, caspase inhibition, and macromolecular synthesis blockage, but not BCL-2 or BCL-XL proteins protect SH-SY5Y cells from apoptosis triggered by two CDK inhibitory drugs.
In table 2, the values shown are the mean inhibitory concentration IC50 values, expressed in μM.

Solubility in water = type: physicochemical
CDK9/cyclin T = biological target: T1, CDK9/cyclin T (Homo sapiens, UniProt P50750); test: Kinase assay CDK9/cyclin T; type: biochemical; details: 15 μM ATP, 30° C., pRB fragment substrate
T1 construct: host or cells: insect cells
T1 sequence (P50750 whole entry, the tested form may be a part): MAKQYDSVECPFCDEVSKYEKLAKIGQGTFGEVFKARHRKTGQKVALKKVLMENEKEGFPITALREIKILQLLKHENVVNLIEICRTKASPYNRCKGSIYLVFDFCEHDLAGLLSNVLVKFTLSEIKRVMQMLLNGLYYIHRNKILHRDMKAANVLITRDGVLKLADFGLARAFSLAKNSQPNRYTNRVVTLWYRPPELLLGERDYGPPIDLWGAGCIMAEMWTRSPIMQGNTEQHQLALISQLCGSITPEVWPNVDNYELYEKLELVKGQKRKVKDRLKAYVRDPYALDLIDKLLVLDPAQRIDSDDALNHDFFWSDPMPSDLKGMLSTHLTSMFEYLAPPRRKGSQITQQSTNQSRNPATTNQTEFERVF
T1 sequence (O60563 whole entry partner, the tested form may be a part): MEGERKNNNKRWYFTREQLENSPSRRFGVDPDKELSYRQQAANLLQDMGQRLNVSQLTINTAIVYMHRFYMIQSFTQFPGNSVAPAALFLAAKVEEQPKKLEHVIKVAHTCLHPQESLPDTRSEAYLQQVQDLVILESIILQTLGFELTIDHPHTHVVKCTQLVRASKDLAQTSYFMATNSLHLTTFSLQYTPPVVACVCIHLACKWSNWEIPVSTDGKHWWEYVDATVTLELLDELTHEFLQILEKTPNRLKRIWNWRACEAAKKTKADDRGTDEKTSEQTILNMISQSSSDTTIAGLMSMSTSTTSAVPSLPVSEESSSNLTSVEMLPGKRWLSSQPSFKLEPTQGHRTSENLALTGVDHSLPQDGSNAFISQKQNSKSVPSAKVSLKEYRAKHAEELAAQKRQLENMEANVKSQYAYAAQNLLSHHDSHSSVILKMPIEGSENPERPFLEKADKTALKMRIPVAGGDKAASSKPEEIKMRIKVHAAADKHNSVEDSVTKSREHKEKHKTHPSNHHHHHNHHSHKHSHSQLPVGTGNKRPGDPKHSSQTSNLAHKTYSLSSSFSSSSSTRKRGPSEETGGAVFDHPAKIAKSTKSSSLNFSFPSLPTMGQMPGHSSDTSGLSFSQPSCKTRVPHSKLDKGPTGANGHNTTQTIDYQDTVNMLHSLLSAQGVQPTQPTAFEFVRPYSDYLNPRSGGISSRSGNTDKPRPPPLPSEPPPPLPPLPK
Method: (§1) Assaying is carried out with 1 mg histone H1/ml, in the presence of 15 μm [γ-^33P]ATP (3000 Ci/mmol; 10 mCi/ml) in a final volume of 30 μl. After incubating at 30° C. for 30 min, 25 μl aliquots of supernatant were deposited on 2.5×3 cm pieces of Whatman P8 phosphocellulose papers and then, 20 sec. later, the filters were washed 5 times in a solution of 10 ml of phosphoric acid/liter. The filters are subsequently counted in the presence of 1 ml of ACS (Amersham).
(§2) The mean inhibitory concentration IC50 values were calculated from the dose/response curves and are listed in μM in the following table I.

DYRK1A = biological target: T2, DYRK1A (Homo sapiens, UniProt Q13627); test: Kinase assay DYRK1A; type: biochemical; details: 15 μM ATP, 30° C.
T2 construct: host or cells: E. coli
Method: as §1
DYRK1A (human, recombinant, expressed in E. coli cells) is assayed like CDK1/cyclin B.
as §2

Erk2 = Erk2 (Homo sapiens, UniProt P28482); test: Kinase assay Erk2; type: biochemical; details: 15 μM ATP, 30° C.
Sequence of Erk2 (P28482 whole entry, species assumed): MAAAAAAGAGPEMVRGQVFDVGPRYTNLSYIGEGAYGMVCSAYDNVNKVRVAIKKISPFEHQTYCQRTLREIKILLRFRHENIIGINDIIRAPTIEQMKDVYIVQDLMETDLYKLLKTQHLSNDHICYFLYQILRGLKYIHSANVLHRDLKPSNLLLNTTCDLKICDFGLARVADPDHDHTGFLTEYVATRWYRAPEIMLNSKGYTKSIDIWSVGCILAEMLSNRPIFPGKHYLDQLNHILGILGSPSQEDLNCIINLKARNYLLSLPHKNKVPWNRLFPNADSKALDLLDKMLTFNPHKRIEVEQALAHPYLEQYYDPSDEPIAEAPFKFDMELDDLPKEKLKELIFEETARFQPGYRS
Method: as §2

GSK-3 α/β = test: Kinase assay GSK-3α/β; type: biochemical, pig; details: 15 μM ATP, 30° C., buffer A, GS-1 substrate
Method: as §1, with “After” for “Assaying is carried out with 1 mg histone H1/ml, in the presence of 15 μm [γ-^33P]ATP (3000 Ci/mmol; 10 mCi/ml) in a final volume of 30 μl. After”
as §2

CK1δ/e = test: Kinase assay CK1; details: read-out: IC50 CK1; 15 μM ATP, 30° C., buffer A
B-CLL = B-CLL patients; cited from earlier work

Molecule: CC(C)[C@H](CO)Nc1nc(NCc2ccc(-c3ccccn3)cc2)c2ncn(C(C)C)c2n1 [Compound of formula Ie]
IC50 ([1]; Homo sapiens, Lymphocyte): 510 nM

Molecule: CCC(CO)Nc1nc(NCc2ccc(-c3ccccc3)cc2)c2ncn(C(C)C)c2n1 (stereo not drawn) [Compound of formula Ic]
IC50 ([1]; Homo sapiens, Lymphocyte): 1250 nM
solubility (Solubility in water): 0.5 µg/mL

IC50 (CDK9/cyclin T): 110 nM
IC50 (DYRK1A): 900 nM
IC50 (Erk2): 2100 nM
IC50 (GSK-3 α/β): ≥ 30 µM
solubility (Solubility in water): 3.3 µg/mL
IC50 (CK1δ/e): 610 nM
Molecule: CC[C@@H](CO)Nc1nc(NCc2ccc(-c3ccccn3)cc2)c2ncn(C(C)C)c2n1 [Compound of formula Ib]
IC50 ([1]; Homo sapiens, Lymphocyte): 90 nM

Molecule: alemtuzumab: therapeutic antibody against an antigen expressed on leukocytes and leukemic B lymphocytes of CLL
hematologic response (B-CLL): 33%

Molecule: CC(C)[C@H](CO)Nc1nc(NCc2ccc(-c3ccccn3)cc2)c2ncn(C(C)C)c2n1 [Compound of formula If]
IC50 [1]: 380 nM

Molecule: CC(C)n1cnc2c(NCc3ccc(-c4ccccn4)cc3)nc(NC(CO)CO)nc21 [Compound of formula Id, 2-(1,3-Dihydroxyprop-2-ylamino)-6-[4-(2-pyridyl)phenylmethylamino]-9-isopropylpurine]
IC50 ([1]; Homo sapiens, Lymphocyte): 250 nM

IC50 (CDK9/cyclin T): 180 nM
IC50 (DYRK1A): 3600 nM
IC50 (Erk2): 3600 nM
IC50 (CK1δ/e): 400 nM
Molecule: CC[C@H](CO)Nc1nc(NCc2ccc(-c3ccccn3)cc2)c2ncn(C(C)C)c2n1 [Compound of formula Ia]
IC50 ([1]; Homo sapiens, Lymphocyte): 200 nM
